Read-outs that look alike come from different tables or passages of the source.
Assays:
SD(IGS) rats = assay: Evaluation of compounds' effect on food consumption in rats; assay type: in vivo; settings: Rattus norvegicus, fasted SD(IGS) rats, high fat diet; for inhibition in vivo at 10 mg/kg: 10 mg/kg oral; for inhibition in vivo at 1 mg/kg: 1 mg/kg oral
From the text: Evaluation of Compounds' Effect on Food Consumption in Rats
SD(IGS) rats (Charles River Japan, Inc., 5-10 weeks of age, male) were used for the pharmacological tests. Rats were individually housed in the room set to a light cycle of lights-out at 10 am and lights-on at 10 pm, and were adapted to high fat diet (35% w/w). They were acclimated for more than 10 days prior to experiments under these conditions.
Based on the food consumption during acclimation and the body weight on the day of experiment, rats were grouped with no difference between groups.
As the test compound, Compounds A-P were used. These test compounds were suspended in 0.5% methyl cellulose solution.
Rats were fasted for about 24 hours before experiment. Each dose of the test compound was orally administered just after the lights-out, and immediately thereafter, the feeding of the high fat diet was resumed. The food weight was measured at 1, 4 and 8 hours after the resumption of the feeding to obtain the cumulative food consumption. The inhibitory rate on food consumption was determined by the following formula using the weight of the cumulative food consumption in each group.
The inhibitory rate on food consumption (%)=(1-test compound group/vehicle group)×100

human DGAT1 = target: T1, human DGAT1 (Homo sapiens, UniProt O75907); assay: Assay of DGAT1 enzyme inhibitory activity (Scintillation Proximity Assay); assay type: biochemical; settings: human DGAT1 membrane fraction from Sf21 cells, 200 μM dioleoyl glycerol, 25 μM 14C decanoyl CoA, SPA; read-out: DGAT1 enzyme inhibitory activity (IC50 class)
T1 construct: FLAG (N); made in house; host or cells: Sf21 insect cells (baculovirus, Bac-to-Bac system); cell membrane fraction
T1 sequence (O75907 1-488): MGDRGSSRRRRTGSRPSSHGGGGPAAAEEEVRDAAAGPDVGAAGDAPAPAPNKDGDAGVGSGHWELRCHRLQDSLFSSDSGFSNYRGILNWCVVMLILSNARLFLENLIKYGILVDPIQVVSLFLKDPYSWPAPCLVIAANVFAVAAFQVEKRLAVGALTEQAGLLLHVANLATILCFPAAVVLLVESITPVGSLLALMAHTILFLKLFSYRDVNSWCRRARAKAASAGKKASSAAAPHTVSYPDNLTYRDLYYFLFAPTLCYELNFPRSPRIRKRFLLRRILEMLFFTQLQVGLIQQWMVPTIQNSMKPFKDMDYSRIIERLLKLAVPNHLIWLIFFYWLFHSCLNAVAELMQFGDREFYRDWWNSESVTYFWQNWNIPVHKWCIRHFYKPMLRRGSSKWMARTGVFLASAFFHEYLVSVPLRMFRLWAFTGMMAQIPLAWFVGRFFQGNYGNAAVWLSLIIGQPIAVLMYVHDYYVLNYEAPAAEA
Protocol: The enzyme source used for the assay was prepared using a human DGAT1 cDNA isolated from the human liver cDNA library. To be specific, a restriction enzyme cleaving sequence and a flag-labeling sequence were added onto the 5′ side and a restriction enzyme cleaving sequence was added onto the 3′ side of the human DGAT1 cDNA by PCR, and human flag tag DGAT1 baculovirus was prepared using Bac-to-Bac Baculovirus Expression System (Invitrogen). Sf21 insect cells were infected for 24-72 hours, recovered and ruptured in a homogenizing buffer using a microfluidizer. The homogenate was centrifuged at 45,000 rpm for 1 hour, and the cell membrane fractions were recovered and used as an enzyme source.
The DGAT inhibitory activity was measured by Scintillation Proximity Assay (SPA). Human DGAT1 membrane fraction (0.25 μg/well) was mixed with various concentrations of the compound and 200 μM of dioleoyl glycerol (enzyme substrate). […] Wheat Germ Agglutinin (WGA) SPA beads-suspended 6 mM HgCl2 (25 μL) was added to terminate the reaction, and the reaction mixture was kept at room temperature for 2 hours to allow adhesion of produced TG onto the SPA beads together with the cell membrane. The mixture was centrifuged at 2,500 rpm for 5 min to precipitate the SPA beads. The radioactivity was measured using Top Count.

[1] = cumulative food consumption 1 h after resumption of feeding, read-out: inhibitory rate on food consumption, 1 h
[2] = cumulative food consumption 4 h after resumption of feeding, read-out: inhibitory rate on food consumption, 4 h
[3] = cumulative food consumption 8 h after resumption of feeding, read-out: inhibitory rate on food consumption, 8 h

Row | SMILES | inhibition in vivo at 10 mg/kg (SD(IGS) rats; [1]) [%] | inhibition in vivo at 10 mg/kg (SD(IGS) rats; [2]) [%] | inhibition in vivo at 10 mg/kg (SD(IGS) rats; [3]) [%] | IC50 (human DGAT1) [nM] | inhibition in vivo at 1 mg/kg (SD(IGS) rats; [1]) [%] | inhibition in vivo at 1 mg/kg (SD(IGS) rats; [2]) [%] | inhibition in vivo at 1 mg/kg (SD(IGS) rats; [3]) [%]
1 | CC1(C)Oc2ncnc(N)c2N=C1c1ccc([C@H]2CC[C@H](CC(=O)O)CC2)cc1 [Compound A] | 29 | 37 | 30 | – | – | – | –
2 | CCCc1c(C(=O)OCC)c(C(=O)OCC)c2c(-c3ccccc3)cc(N3CCOCC3)nn12 [Compound B, Diethyl 2-morpholin-4-yl-4-phenyl-7-propylpyrrolo[1,2-b]pyridazine-5,6-dicarboxylate] | 26 | 14 | 4 | > 100 | – | – | –
3 | CC1(C)Oc2ncnc(N)c2N=C1c1ccc([C@H]2CC[C@H](CC(=O)O)CC2)cc1 [Compound C] | – | – | – | – | 24 | 30 | 19
4 | Cc1nc(N)c2c(n1)OC(C)(C)C(c1ccc([C@H]3CC[C@H](CC(=O)O)CC3)cc1)=N2 [Compound D] | – | – | – | – | 50 | 27 | 17
5 | Cc1nc(N)c2c(n1)OC(C)(C)C(c1ccc([C@H]3CC[C@H](CNC(=O)CO)CC3)cc1)=N2 [Compound E] | – | – | – | – | 6 | 15 | 20
6 | Cc1nc(N)c2c(n1)OC(C)(C)C(c1ccc([C@H]3CC[C@H](CCc4nc(=O)on4C)CC3)cc1)=N2 [Compound F] | – | – | – | – | 11 | 20 | 13
7 | Cc1nc(N)c2c(n1)OC(C)(C)C(c1ccc([C@H]3CC[C@H](CNC(=O)C(C)(C)CO)CC3)cc1)=N2 [Compound G] | – | – | – | – | 29 | 19 | 15
8 | Cc1nc(N)c2c(n1)OC(C)(C)C(c1ccc([C@H]3CC[C@H](CNC(=O)CO)CC3)c(Cl)c1)=N2 [Compound H] | – | – | – | – | 36 | 36 | 20
9 | Cc1nc(N)c2c(n1)OC(C)(C)C(c1ccc([C@H]3CC[C@H](CNC(=O)C(C)(C)O)CC3)cc1)=N2 [Compound I] | – | – | – | – | 30 | 1 | 4
10 | Cc1nc(N)c2c(n1)OC(C)(C)C(c1ccc([C@H]3CC[C@H](Cc4nc(=O)o[nH]4)CC3)cc1)=N2 [Compound J] | – | – | – | – | 8 | 23 | 10
11 | CC1(C)Oc2nc(C(F)(F)F)nc(N)c2N=C1c1ccc2c(c1)CCC21CCC(CC(=O)O)CC1 (centres unmarked) [Compound K] | – | – | – | – | 19 | 37 | 22
12 | Cc1nc(N)c2c(n1)OC(C)(C)C(c1ccc([C@H]3CC[C@H](CN4CCCC(O)C4=O)CC3)cc1)=N2 (some centres unmarked) [Compound L] | – | – | – | 10 to 100 | 10 | 16 | 9
13 | CC1(C)Oc2nc(C(F)(F)F)nc(N)c2N=C1c1ccc([C@H]2CC[C@H](CC(=O)O)CC2)c(Cl)c1 [Compound M] | – | – | – | – | 26 | 12 | 14
14 | CC1(C)Oc2nc(C(F)(F)F)nc(N)c2N=C1c1ccc([C@H]2CC[C@H](CNC(N)=O)CC2)c(Cl)c1 [Compound N] | – | – | – | – | 17 | 6 | 7
15 | Cc1nc(N)c2c(n1)OC(C)(C)C(c1ccc([C@H]3CC[C@H](CNC(N)=O)CC3)c(Cl)c1)=N2 [Compound O] | – | – | – | – | 20 | 13 | 12
16 | CC1(C)Oc2ncnc(N)c2C=C1c1ccc2c(c1)CC[C@]21CC[C@@H](CC(=O)O)CC1 [Compound P] | – | – | – | – | 20 | 36 | 28

From US20070027093A1, “Anorectic” (Japan Tobacco Inc., priority 2004, published 2007)
